{"source": "patent US9492471B2", "about": "“Methods of treating a disease or disorder associated with Bruton'S Tyrosine Kinase” (Celgene Avilomics Research, Inc., priority 2013, dated 2016)", "assay_in_all_cases": "HotSpot kinase profiling", "format_in_all_cases": "biochemical", "key": {"[1]": {"molecular_target": "T1, AXL (Homo sapiens, UniProt P30530)", "T1 construct": "purchased Reaction Biology Corp", "T1 sequence (P30530 26-894)": "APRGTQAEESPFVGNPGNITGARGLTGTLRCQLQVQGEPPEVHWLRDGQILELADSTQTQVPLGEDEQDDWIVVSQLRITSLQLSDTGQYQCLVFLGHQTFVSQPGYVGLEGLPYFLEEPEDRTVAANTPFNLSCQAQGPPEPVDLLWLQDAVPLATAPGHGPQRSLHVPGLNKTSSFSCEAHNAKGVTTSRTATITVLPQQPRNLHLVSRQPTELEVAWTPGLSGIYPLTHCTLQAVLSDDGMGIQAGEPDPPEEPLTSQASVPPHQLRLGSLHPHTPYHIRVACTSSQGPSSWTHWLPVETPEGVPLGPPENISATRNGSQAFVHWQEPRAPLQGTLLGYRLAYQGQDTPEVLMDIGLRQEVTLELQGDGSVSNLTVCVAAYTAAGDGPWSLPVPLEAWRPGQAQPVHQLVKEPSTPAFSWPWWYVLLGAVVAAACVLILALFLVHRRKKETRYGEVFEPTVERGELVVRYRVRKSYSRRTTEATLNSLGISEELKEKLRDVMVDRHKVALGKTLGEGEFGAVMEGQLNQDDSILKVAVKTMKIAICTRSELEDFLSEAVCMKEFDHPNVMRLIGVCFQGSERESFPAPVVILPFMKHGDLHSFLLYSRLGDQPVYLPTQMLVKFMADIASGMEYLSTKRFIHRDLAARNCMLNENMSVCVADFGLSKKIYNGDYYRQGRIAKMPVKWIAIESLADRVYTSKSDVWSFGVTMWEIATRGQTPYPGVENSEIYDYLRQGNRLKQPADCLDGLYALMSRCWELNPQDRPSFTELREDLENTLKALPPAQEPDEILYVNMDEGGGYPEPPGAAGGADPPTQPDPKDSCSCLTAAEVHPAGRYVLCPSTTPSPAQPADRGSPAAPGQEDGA", "procedure,_shortened": "(§1)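 Activity is measured by radiolabel transfer captured on P81 filters after a 2 h room-temperature reaction of kinase, substrate and cofactors. Values are percent inhibition against DMSO.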"}, "[2]": {"molecular_target": "T2, DYRK3 (Homo sapiens, UniProt O43781)", "T2 construct": "purchased Reaction Biology Corp", "T2 sequence (O43781 1-588)": "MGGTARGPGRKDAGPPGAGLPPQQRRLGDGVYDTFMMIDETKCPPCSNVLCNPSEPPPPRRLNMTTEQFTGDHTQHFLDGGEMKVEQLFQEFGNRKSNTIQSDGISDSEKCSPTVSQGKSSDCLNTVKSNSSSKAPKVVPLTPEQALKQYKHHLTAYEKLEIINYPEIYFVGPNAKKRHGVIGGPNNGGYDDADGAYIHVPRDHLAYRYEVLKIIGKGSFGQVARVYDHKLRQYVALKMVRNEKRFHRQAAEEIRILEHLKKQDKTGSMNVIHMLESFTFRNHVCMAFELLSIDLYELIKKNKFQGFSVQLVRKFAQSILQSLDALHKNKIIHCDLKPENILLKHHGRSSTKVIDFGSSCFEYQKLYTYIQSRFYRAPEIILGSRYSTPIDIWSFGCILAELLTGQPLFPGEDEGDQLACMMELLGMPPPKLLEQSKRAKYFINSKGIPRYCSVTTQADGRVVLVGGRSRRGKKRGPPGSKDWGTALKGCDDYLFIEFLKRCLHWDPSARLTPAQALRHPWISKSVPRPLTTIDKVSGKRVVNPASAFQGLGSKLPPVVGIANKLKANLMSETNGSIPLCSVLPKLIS", "procedure,_shortened": "as §1"}, "[3]": {"molecular_target": "T3, GCK/MAP4K2 (Homo sapiens, UniProt Q12851)", "T3 construct": "purchased Reaction Biology Corp", "T3 sequence (Q12851 1-820)": "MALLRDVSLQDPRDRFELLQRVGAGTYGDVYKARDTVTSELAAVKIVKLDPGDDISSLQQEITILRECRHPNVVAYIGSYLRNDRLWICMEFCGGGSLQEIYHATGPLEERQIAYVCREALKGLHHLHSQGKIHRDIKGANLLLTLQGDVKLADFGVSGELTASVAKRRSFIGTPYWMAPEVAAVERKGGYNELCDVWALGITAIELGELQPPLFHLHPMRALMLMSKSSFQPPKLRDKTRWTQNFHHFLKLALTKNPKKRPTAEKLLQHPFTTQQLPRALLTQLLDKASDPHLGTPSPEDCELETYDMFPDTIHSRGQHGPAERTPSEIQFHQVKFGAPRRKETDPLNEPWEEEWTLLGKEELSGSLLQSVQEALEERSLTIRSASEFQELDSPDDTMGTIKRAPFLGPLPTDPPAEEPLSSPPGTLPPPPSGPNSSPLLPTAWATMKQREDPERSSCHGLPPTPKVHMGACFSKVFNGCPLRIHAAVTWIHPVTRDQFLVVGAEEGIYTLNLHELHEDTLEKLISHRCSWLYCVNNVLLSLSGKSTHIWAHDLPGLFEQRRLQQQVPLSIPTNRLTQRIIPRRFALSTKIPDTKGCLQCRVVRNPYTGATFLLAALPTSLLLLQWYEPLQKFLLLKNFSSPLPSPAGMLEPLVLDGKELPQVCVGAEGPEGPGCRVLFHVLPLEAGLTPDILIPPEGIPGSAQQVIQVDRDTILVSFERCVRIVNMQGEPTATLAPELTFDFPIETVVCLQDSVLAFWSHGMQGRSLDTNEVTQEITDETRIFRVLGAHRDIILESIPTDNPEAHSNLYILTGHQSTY", "procedure,_shortened": "as §1"}, "[4]": {"molecular_target": "T4, LCK (Homo sapiens, UniProt P06239)", "T4 construct": "purchased Reaction Biology Corp", "T4 sequence (P06239 whole entry)": "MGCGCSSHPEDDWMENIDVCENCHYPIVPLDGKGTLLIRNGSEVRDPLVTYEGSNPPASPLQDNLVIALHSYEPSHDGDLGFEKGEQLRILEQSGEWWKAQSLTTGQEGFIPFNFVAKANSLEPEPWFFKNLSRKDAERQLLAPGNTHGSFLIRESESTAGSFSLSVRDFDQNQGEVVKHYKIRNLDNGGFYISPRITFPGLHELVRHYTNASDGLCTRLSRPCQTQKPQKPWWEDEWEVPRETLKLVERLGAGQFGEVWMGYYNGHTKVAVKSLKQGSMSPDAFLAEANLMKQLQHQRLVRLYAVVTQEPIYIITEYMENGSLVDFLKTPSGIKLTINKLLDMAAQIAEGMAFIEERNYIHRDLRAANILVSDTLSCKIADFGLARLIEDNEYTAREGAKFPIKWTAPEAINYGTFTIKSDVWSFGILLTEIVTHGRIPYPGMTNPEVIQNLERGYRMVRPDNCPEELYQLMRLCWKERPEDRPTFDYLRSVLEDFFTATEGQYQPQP", "procedure,_shortened": "as §1"}, "[5]": {"conditions": "read-out: % Enzyme Activity (relative to DMSO controls) Run 1"}, "[6]": {"conditions": "read-out: % Enzyme Activity (relative to DMSO controls) Run 2"}}, "note": "Like-named read-outs stand apart in the source and are kept apart here."}
{"smiles": "C=CC(=O)Nc1cccc(Nc2nc(Nc3ccc(OCCOC)c(F)c3)ncc2F)c1", "note": "[Compound 2]", "values": [{"measurement": "inhibition at 3 µM", "setting": "[1]", "result": 51.3, "unit": "%"}, {"measurement": "remaining activity at 3 µM", "setting": "[1]; [5]", "result": 48.6, "unit": "%"}, {"measurement": "remaining activity at 3 µM", "setting": "[1]; [6]", "result": 48.8, "unit": "%"}, {"measurement": "inhibition at 3 µM", "setting": "[2]", "result": 14.1, "unit": "%"}, {"measurement": "remaining activity at 3 µM", "setting": "[2]; [5]", "result": 86, "unit": "%"}, {"measurement": "remaining activity at 3 µM", "setting": "[2]; [6]", "result": 85.9, "unit": "%"}, {"measurement": "inhibition at 3 µM", "setting": "[3]", "result": -0.14, "unit": "%"}, {"measurement": "remaining activity at 3 µM", "setting": "[3]; [5]", "result": 100, "unit": "%"}, {"measurement": "remaining activity at 3 µM", "setting": "[3]; [6]", "result": 100, "unit": "%"}, {"measurement": "inhibition at 3 µM", "setting": "[4]", "result": 36, "unit": "%"}, {"measurement": "remaining activity at 3 µM", "setting": "[4]; [5]", "result": 64.7, "unit": "%"}, {"measurement": "remaining activity at 3 µM", "setting": "[4]; [6]", "result": 63.4, "unit": "%"}]}
